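Five concentrations, 48 hours, 96-well plates. GI50: concentration for 50% inhibition of growth.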 The source made the active and inactive calls. No stated cut-off is given here; in the data, active = GI50 up to about 1.1 µM and inactive = higher.
Experiments:
Test in all cases: NCI-60 cell line screen, 48 h
CCRF-CEM = tested on: CCRF-CEM
Hs-578T = tested on: Hs-578T
EKVX = tested on: EKVX
CAKI-1 = tested on: CAKI-1
KM12 = tested on: KM12
K562 = tested on: K562
NCI-H226 = tested on: NCI-H226
LXFL 529 = tested on: LXFL 529
A549 = tested on: A549
DU-145 = tested on: DU-145
IGROV-1 = tested on: IGROV-1
MDA-MB-435 = tested on: MDA-MB-435
HCT-116 = tested on: HCT-116
HL-60 = tested on: HL-60
MDA-MB-231 = tested on: MDA-MB-231
SK-OV-3 = tested on: SK-OV-3
HT-29 = tested on: HT-29
HCC 2998 = tested on: HCC 2998
OVCAR-8 = tested on: OVCAR-8
NCI-H23 = tested on: NCI-H23

COc1ccccc1/C=C1\CCC(Cc2ccccc2)(CN(C)C)C1=O (stereo not given)
GI50 (CCRF-CEM): 0.528 µM (active)
GI50 (Hs-578T): 0.834 µM (active)
GI50 (EKVX): 3.35 µM (inactive)
GI50 (CAKI-1): 2.38 µM (inactive)
GI50 (KM12): 0.319 µM (active)
GI50 (K562): 0.0851 µM (active)
GI50 (NCI-H226): 23.6 µM (inactive)
GI50 (LXFL 529): 4.55 µM (inactive)
GI50 (A549): 3.44 µM (inactive)
GI50 (DU-145): 7.93 µM (inactive)
GI50 (IGROV-1): 3.67 µM (inactive)
GI50 (MDA-MB-435): 1.07 µM (active)
GI50 (HCT-116): 0.406 µM (active)
GI50 (HL-60): 0.471 µM (active)
GI50 (MDA-MB-231): 4.59 µM (inactive)
GI50 (SK-OV-3): 8.36 µM (inactive)
GI50 (HT-29): 0.426 µM (active)
GI50 (HCC 2998): 3.13 µM (inactive)
GI50 (OVCAR-8): 2.33 µM (inactive)
GI50 (NCI-H23): 6.43 µM (inactive)
